Measured values published in article PMC2759945, “Cellular transport of anti-inflammatory pro-drugs originated from a herbal formulation of Zingiber cassumunar and Nigella sativa” (Chinese Medicine, 2009).
In brackets after ≈: the same amount, converted by molar mass.

Columns and labels:
[1] = Transport across Caco-2 cell monolayers, apical to basolateral; format: in vitro ADME, human; conditions: human, Caco-2, pH 7.4; for Papp at 100 min, 53 μM: read-out: apparent permeability coefficient Papp at 53 μM; for Papp at 100 min, 106 μM: read-out: apparent permeability coefficient Papp at 106 μM
Procedure: (§1) Caco-2 cells were maintained in a DMEM at pH7.4, supplemented with 10% fetal bovine serum, 2 mM L-glutamine, 1% non-essential amino acid solution and 0.1% penicillin-streptomycin solution in a humidified atmosphere (5% CO2, 95% air, at 37°C). Cells were grown until 60-70% confluence. Cells from passages 20-40 were used for all experiments. Cells were seeded on tissue culture polycarbonate membrane filters (pore size: 3.0 μm) in 6-well Transwell plates (Corning, USA) at a seeding density of 2 × 10^4cells/cm^2. Culture medium was added to both the donor and the acceptor compartments. Medium was changed every two days. Cells were left to differentiate for 15-21 days after seeding with monitoring of trans-epithelial electrical resistance (TEER) values with a Millicell electrical resistance system (Millipore, USA) and the value should be higher than 600Ω.cm^2.
(§2) Transport experiment across the Caco-2 cell monolayers at pH7.4 was performed. Caco-2 cell monolayers in Transwell (6-well) plates were used for transport studies when they were differentiated and the monolayer was intact, as checked by measuring TEER. Prior to the experiment, the cells were washed twice with phosphate buffered saline (PBS) and pre-equilibrated for one hour with HBSS buffered with 30 mM n-(2-hydroxyethyl) piperazine-n-(2-ethanosulfonic acid) (HEPES) at pH7.4. After medium was removed, the cells were treated with sample solutions (concentrations of 53 μM and 106 μM in HBSS at pH7.4) in an apical compartment. Samples (1 mL) were taken under sink conditions at 0, 5, 20, 40, 60, 80 and 100 minutes from the basolateral side and replaced with an equal volume of fresh HBSS solution. The amount of the compounds from the basolateral side was determined on a UV-spectrophotometer (Thermo Scientific, USA) at 228 nm. Results were expressed as cumulative transport as a function of time. Apparent permeability coefficient was calculated according to the following equation: […]
(§3) where Papp is the apparent permeability coefficient (cm/s), dQ/dt (μg/s) is the rate of appearance of sample on the basolateral side, A is the surface area of the monolayer (cm^2) and C0 (μg/mL) is the initial drug concentration in the donor compartment. All rate constants were obtained from the permeation profiles of each compound. Statistical significance was evaluated with one-way analysis of variance (one-way ANOVA). A value of P < 0.05 was considered statistically significant.

Caco-2 cell monolayers = assay: as above; format: in vitro ADME, human; conditions: for Papp at 53 μM / Papp at 106 μM: apical to basolateral, pH7.4, mean (SD), n = 3
Procedure: as §1, §2, §3

[2] = Chemical hydrolysis in transport medium (HBSS); format: physicochemical; conditions: 53 μM and 106 μM in transport medium (HBSS pH7.4), stored at 4°C for 96 hours
Procedure: Solution of compound 1, 2 and 3 at 53 μM and 106 μM were prepared in Hank's balanced salt solution (HBSS) at pH7.4. All solutions were kept at 4°C for 96 hours and each solution was then analyzed by HPLC at 12, 24, 48, 72 and 96 hours to determine the hydrolysis product.

[3] = test system: Mycobacterium tuberculosis H37Ra; design: method as in PMID 17691048; conditions: cited from earlier work
porcine liver esterase = assay: Enzyme hydrolysis by porcine liver esterase, monitored by HPLC; format: in vitro ADME; conditions: 10 μM, 37°C
Procedure: Compound 1 (2 mL, 10 μM solution) was pre-incubated at 37°C and 200 μL of esterase enzyme (porcrine liver, 750 units) was added. Samples (200 μL each) were taken at 5, 10, 20, 30 and 60 minutes and added to 200 μL of methanol. Mixtures were vortexed to stop enzymatic activity. Samples were then centrifuged for five minutes at 14,000 × g (Lab Essentials, USA). Supernatant was injected to the HPLC system for the determination of ester pro-drugs and compound D. This procedure was repeated for compounds 2 and 3.

[4] = design: method as in PMID 17691048; conditions: human vero cell line, cited from earlier work
[5] = test system: herpes simplex virus (HSV-1); design: method as in PMID 17691048; conditions: vero cell line; cited from earlier work
[6] = test system: carrageenan-induced rat paw edema; design: method as in doi:10.1055/s-2006-961309; conditions: compound D from a hexane extract of Z. cassumunar; cited from earlier work
[7] = test system: uterus of non-pregnant rat; design: method as in PMID 3671553; conditions: cited from earlier work
[8] = apical to basolateral direction

Structure (SMILES)	Papp at 100 min, 53 μM [1]	Papp at 100 min, 106 μM [1]	hydrolysis during the transport across Caco-2 cell monolayers (Caco-2 cell monolayers)	cumulative transport at 53 μM (Caco-2 cell monolayers; 53 μM, apical to basolateral direction)	Papp at 53 μM (Caco-2 cell monolayers; 53 μM)	cumulative transport at 106 μM (Caco-2 cell monolayers; [8])	Papp at 106 μM (Caco-2 cell monolayers)	time after which hydrolysis product compound D was detected by HPLC [2]	Minimal inhibitory concentration [3]	time in which the ester hydrolysis was completed (porcine liver esterase)	cytotoxicity ([4]; at anti-HSV-1 IC50)	anti-HSV-1 IC50 [5]	cytotoxicity IC50 [4]	effect on edema formation [6]	uterine relaxant effect [7]
CCCCC/C=C\C/C=C\CCCCCCCC(=O)OCC/C=C/c1ccc(OC)c(OC)c1 [Compound 1, (E)-4-(3,4-dimethoxyphenyl)but-3-en-1-yl linoleate]	13.9 ×10⁻⁶ cm/s	14.3 ×10⁻⁶ cm/s	did not occur	highest cumulative transport	13.94 (0.60) 10^-6cm/s	higher cumulative transport over other two fatty acid ester	14.33 (0.17) 10^-6cm/s	24 h	200 µg/mL (≈ 425 µM)	≤ 10 min					
CCCCCCCC/C=C\CCCCCCCC(=O)OCC/C=C/c1ccc(OC)c(OC)c1 [Compound 2, (E)-4-(3,4-dimethoxyphenyl)but-3-en-1-yl oleate]	9.45 ×10⁻⁶ cm/s	10.1 ×10⁻⁶ cm/s	did not occur		9.45 (0.29) 10^-6cm/s		10.08 (0.32) 10^-6cm/s	24 h	100 µg/mL (≈ 212 µM)	≤ 10 min	without cytotoxicity	42.6 µg/mL			
CCCCCCCCCCCCCCCC(=O)OCC/C=C/c1ccc(OC)c(OC)c1 [Compound 3, (E)-4-(3,4-dimethoxyphenyl)but-3-en-1-yl palmitate]	7.48 ×10⁻⁶ cm/s	8.6 ×10⁻⁶ cm/s	did not occur		7.48 (0.31)** 10^-6cm/s		8.60 (0.55)** 10^-6cm/s	24 h	200 µg/mL (≈ 448 µM)	≤ 10 min			38 µg/mL		
COc1ccc(/C=C/CCO)cc1OC [Compound D, (E)-4-(3,4-dimethoxyphenyl)but-3-en-1-ol]	8.53 ×10⁻⁶ cm/s	16.4 ×10⁻⁶ cm/s			8.53 (0.83)** 10^-6cm/s	cumulative transport close to compound 3	16.38 (0.61)** 10^-6cm/s							potent inhibitory effect on edema formation	dose dependent uterine relaxant effect
